Reference: ChEMBL document CHEMBL1142497, “Emerging protein targets for anticancer metallodrugs: inhibition of thioredoxin reductase and cathepsin B by antitumor ruthenium(II)-arene compounds” (J Med Chem, 2008)

What was measured:
[1] = biological target: Thioredoxin reductase 2, mitochondrial (Rattus norvegicus, UniProt Q9Z0J5)
[2] = biological target: T1, Thioredoxin reductase 1, cytoplasmic (Rattus norvegicus, UniProt O89049)
T1 sequence (O89049 whole entry): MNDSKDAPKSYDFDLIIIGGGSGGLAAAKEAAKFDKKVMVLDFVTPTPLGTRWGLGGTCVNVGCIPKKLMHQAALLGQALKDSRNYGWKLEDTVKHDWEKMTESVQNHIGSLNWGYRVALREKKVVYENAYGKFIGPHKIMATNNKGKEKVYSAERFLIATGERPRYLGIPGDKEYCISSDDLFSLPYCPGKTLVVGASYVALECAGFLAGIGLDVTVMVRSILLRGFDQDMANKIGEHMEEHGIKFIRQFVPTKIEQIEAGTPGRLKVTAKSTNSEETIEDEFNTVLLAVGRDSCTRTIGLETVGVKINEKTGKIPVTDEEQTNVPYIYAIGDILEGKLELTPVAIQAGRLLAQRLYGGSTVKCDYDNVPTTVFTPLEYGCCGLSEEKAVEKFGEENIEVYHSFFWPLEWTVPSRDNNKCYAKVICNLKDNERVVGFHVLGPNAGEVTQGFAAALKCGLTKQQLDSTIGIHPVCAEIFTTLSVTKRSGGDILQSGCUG

Sequence of Thioredoxin reductase 2, mitochondrial (Q9Z0J5 whole entry): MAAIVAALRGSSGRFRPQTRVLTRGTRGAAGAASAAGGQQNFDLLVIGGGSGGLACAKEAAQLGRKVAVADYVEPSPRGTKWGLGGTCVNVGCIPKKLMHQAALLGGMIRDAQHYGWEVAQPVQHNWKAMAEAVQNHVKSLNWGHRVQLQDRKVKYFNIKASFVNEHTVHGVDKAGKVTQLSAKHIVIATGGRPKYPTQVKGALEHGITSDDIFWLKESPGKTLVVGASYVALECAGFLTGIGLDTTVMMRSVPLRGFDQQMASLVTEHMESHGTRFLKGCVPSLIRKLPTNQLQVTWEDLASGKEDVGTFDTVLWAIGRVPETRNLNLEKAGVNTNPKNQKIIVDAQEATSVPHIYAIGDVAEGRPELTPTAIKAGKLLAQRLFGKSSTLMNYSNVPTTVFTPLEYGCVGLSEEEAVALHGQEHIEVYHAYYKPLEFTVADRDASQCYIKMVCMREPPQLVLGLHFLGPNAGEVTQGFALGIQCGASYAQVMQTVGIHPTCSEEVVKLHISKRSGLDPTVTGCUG

What does the source list for `O=C(O)C1(C(=O)O)CCC1`?
IC50 [1]: > 200 µM; IC50 [2]: > 200 µM
